Consider 26 molecules from patent publication US9216983B2, “Dihydroorotate dehydrogenase inhibitors with selective anti-malarial activity” (BOARD OF REGENTS, UNIVERSITY OF TEXAS SYSTEM, priority 2007, dated 2015).

“And” between values parts separate entries of the source, which are not always exact repeats. Equal values may be shown once. Read-outs that look alike come from different tables or passages of the source. Some results are limits rather than exact numbers.

Data set [1] has as its system P. falciparum. In words: Inhibition of cell proliferation, 3H-hypoxanthine uptake in P. falciparum-infected erythrocytes. The class given is cell-based. The source says: [formula] II. In Vitro Evaluation of Compound Efficacy on the Human Malaria Parasite, P. falciparum.
The target in data set [2] is T1, PfDHODH (Plasmodium falciparum, UniProt Q08210).
T1 sequence (Q08210 24-569): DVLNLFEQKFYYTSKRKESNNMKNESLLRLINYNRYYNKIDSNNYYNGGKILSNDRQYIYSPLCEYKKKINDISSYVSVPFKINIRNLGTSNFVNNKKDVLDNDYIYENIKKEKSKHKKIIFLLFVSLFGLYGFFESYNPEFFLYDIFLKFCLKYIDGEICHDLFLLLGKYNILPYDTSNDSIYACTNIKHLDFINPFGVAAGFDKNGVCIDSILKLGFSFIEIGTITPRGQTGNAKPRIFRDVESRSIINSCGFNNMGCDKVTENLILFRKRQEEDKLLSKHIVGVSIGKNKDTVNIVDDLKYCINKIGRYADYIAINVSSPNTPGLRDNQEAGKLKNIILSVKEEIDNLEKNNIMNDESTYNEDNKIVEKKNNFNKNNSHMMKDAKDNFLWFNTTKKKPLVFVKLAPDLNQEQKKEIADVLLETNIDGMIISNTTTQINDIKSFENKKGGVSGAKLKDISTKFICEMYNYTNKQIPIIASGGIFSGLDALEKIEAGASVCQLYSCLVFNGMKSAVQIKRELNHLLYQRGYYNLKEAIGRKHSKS
Kind of data set: biochemical. The procedure: (§1) Briefly, the assay solution contained 100 mM HEPES, pH 8.0, 150 mM NaCl, 10% glycerol, 0.1% Triton X-100, 20 micro molar COQD (coenzyme QD), 200 micro molar L-dihydroorotate, and 120 micro molar DCIP. Reactions are initiated by addition of enzyme to a final concentration in the range of about […] to about 50 nM while maintaining the temperature of a circulating water bath at 25° C.
(§2) Assay solutions were prepared as discussed above, except that DCIP is not present and the solution is depleted of oxygen by the inclusion of an oxidase/reductase system, such as, 0.1 mg/ml of glucose oxidase, 0.02 mg/ml catalase and 50 mM glucose. The data obtained is fitted to equation 1, to determine the IC50 values of the representative compounds.

The target of data set [3] is hDHODH (Homo sapiens, UniProt Q02127). Kind of data set: DHODH enzyme inhibition assay, hDHODH. It is filed as biochemical. The procedure:
as §1, §2

The target in data set [4] is PbDHODH (Plasmodium berghei, UniProt A0A509AEH5). Kind of data set: DHODH enzyme inhibition assay, PbDHODH. It is filed as biochemical, P. berghei. The method, then:
as §1, §2

A short description of data set [5]: Pharmacokinetic analysis after single oral dose in mice. The settings on record: for peak plasma concentration: FIG. 1A. It is filed as in vivo. The procedure: Pharmacokinetics of the inventive compounds was studied individually in non-fasted male Swiss outbred mice weighing 23-33 g. Mice had access to food and water ad libitum throughout the pre- and post-dose sampling period. Compounds were administered orally by gavage (0.1 mL dose volume per mouse) in a suspension of aqueous vehicle (0.5% w/v sodium caboxymethylcellulose, 0.5% v/v benzyl alcohol and 0.4% v/v Tween 80). A single blood sample was collected from each mouse via cardiac puncture at each indicated time point and transferred to heparinised tubes. Blood samples were centrifuged immediately, supernatant plasma was removed and stored at −20° C. until analysis (within 1-2 weeks). Plasma samples were assayed by LC-MS following protein precipitation with acetonitrile and the concentration of drug in plasma was determined. Pharmacokinetic parameters were calculated on the basis of plasma concentration-time profiles that used the mean plasma concentration at each sample time.

Data set [6] has as its system P. berghei. In words: Standard P. berghei mouse model of infection. The class given is in vivo. The settings on record: mice, oral. The method, then: (A) The standard P. berghei mouse model for infection is utilized to evaluate the efficacy of candidate compounds, according to the invention, against parasites in vivo. See review of Fidock, et al. (2004) Nature Rev. Drug Discovery 3, 509-20. Compounds are dosed either orally or IP, with the exact regimens (e.g. frequency of dosing, drug concentrations at dosing) determined based on the pharmocokinetic profiles of the individual analogs. […] Inhibition of parasite growth is determined microscopically by staining a thin smear of blood obtained from the test animal using a Wright-Giemsa stain.

The mark [7] stands for this setting: Plasmodium falciparum, 3D7, Erythrocyte, Table 5, 3D7 cells, read-out: EC50 P. falciparum 3D7 cells.
Setting [8] is: Table 5, read-out: PfDHODH IC50.
[9] abbreviates: Table 3, average of the determinations, read-out: PbDHODH IC50 Ave (converted).
[10] abbreviates: Plasmodium falciparum, 3D7, Erythrocyte, Table 3, 3D7, single determinations, read-out: P. falciparum 3D7 EC50 (converted).
The mark [11] stands for this setting: Table 4, IC50 class, read-out: PfDHODH.
Setting [12] is: Table 4, IC50 class, read-out: hDHODH.
Where [13] appears, read: Table 4, IC50 class, read-out: PbDHODH.
The mark [14] stands for this setting: Table 1, read-out: IC50 PfDHODH.
Where [15] appears, read: Plasmodium falciparum, Erythrocyte, Table 1, read-out: EC50 P. falciparum.
The mark [16] stands for this setting: for a 2.5-fold increase in dose, 20 to 50 mg/kg.

PbDHODH, sequence (A0A509AEH5 entry or part of it): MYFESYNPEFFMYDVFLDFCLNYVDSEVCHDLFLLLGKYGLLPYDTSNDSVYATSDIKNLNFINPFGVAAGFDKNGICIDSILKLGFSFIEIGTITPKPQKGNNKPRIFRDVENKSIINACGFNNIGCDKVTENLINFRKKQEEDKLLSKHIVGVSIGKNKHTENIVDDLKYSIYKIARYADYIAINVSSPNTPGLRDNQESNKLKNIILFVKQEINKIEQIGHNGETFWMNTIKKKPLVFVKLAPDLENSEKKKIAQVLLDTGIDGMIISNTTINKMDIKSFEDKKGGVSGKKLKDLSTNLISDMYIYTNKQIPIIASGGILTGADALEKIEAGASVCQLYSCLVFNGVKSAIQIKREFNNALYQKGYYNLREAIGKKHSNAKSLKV
hDHODH, sequence (Q02127 whole entry): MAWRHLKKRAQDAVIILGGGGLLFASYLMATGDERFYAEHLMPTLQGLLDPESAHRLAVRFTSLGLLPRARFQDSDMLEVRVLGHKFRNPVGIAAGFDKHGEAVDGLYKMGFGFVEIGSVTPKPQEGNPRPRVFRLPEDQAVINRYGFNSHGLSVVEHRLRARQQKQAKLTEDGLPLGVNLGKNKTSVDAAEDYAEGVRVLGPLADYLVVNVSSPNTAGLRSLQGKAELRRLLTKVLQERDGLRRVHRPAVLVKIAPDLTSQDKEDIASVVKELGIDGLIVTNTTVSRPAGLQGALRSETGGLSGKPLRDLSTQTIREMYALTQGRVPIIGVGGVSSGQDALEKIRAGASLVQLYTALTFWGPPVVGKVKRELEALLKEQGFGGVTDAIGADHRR

As usually defined, the melting point is the temperature, or range, at which the solid turns liquid. `Cc1cc(Nc2ccc(OC(F)F)cc2)n2ncnc2n1` [Compound 20, (4-Difluoromethoxy-phenyl)-(5-methyl-[1,2,4]triazolo[1,5-a]pyrimidin-7-yl)-amine] gave a melting point of 200 °C.
In general, EC50 refers to the concentration that produces a half-maximal response. For the molecule `Cc1cc(Nc2ccc(C(F)(F)F)cc2)n2ncnc2n1` [drawing 93], the EC50 in data set [1] (setting [7]) is 330 ± 20 nM.
As for `CC1=NC2=NC=NC2C(Nc2ccc3ccccc3c2)=N1` (stereo not shown) [2-methyl-N-(naphthalen-2-yl)-9H-purin-6-amine], the IC50 was 440 ± 200 nM in data set [2] (IC50 PfDHODH, Table 1) and > 200000 nM in data set [3] (Table 1, read-out: IC50 hDHODH). Also, in data set [1] (Plasmodium falciparum, Erythrocyte, read-out: EC50 P. falciparum), the EC50 was 1600 nM.
Regarding `Cc1nc2nc(C)c(C)c(Nc3ccc(C(F)(F)F)cc3)n2n1` [2,5,6-trimethyl-N-(4-(trifluoromethyl)phenyl)-[1,2,4]triazolo[1,5-a]pyrimidin-7-amine], the IC50 in data set [2] (setting [8]) is 3000 ± 460 nM. In data set [1] (setting [7]), the EC50 amounted to 3600 ± 4 nM.
As to `Cc1cc(Nc2ccc3ccccc3c2)n2ccnc2n1`, the IC50 in data set [2] (PfDHODH IC50, Table 3, single determinations) is 160 nM and 140 nM; in data set [2] (Table 3, average of the determinations, read-out: PfDHODH IC50 Ave (converted)), 150 nM; in data set [4] (setting [9]), 2800 nM. For the same molecule, the EC50 in data set [1] (setting [10]) was 200 ± 1 nM.
For the molecule `CCCCc1ccc(Nc2cc(C)nc3ncnn23)cc1`, the IC50 in data set [2] (setting [11]) is < 2000 nM; in data set [3] (setting [12]), > 10000 nM; in data set [4] (PbDHODH, Table 4, IC50 class) it was 2000 to 10000 nM.
`Cc1cc(Nc2ccc(C(F)(F)F)c(F)c2)n2ncnc2n1`: the IC50 is < 2000 nM in data set [2] (setting [11]), > 10000 nM in data set [3] (setting [12]) and < 2000 nM in data set [4] (setting [13]).
`Cc1cc(Nc2cc(C(F)(F)F)cc(C(F)(F)F)c2)n2ncnc2n1`: the IC50 in data set [2] (setting [11]), in data set [3] (setting [12]) and in data set [4] (setting [13]) was > 10000 nM each time.
Regarding `Cc1cc(Nc2cccc(C(F)(F)F)c2)n2ncnc2n1`, the IC50 in data set [2] (setting [11]), in data set [3] (setting [12]) and in data set [4] (setting [13]) was > 10000 nM throughout.
`Cc1cc(NCCCc2ccccc2)n2ncnc2n1`: the IC50 in data set [2] (setting [11]), in data set [3] (setting [12]) and in data set [4] (setting [13]) was > 10000 nM each time.
Consider `Cc1nc2ncnn2c(Nc2ccc(C(F)(F)F)cc2)c1Cl` [6-chloro-5-methyl-N-(4-(trifluoromethyl)phenyl)-[1,2,4]triazolo[1,5-a]pyrimidin-7-amine], for which, in data set [2] (setting [8]), the IC50 is 340 ± 60 nM. Further, the EC50 in data set [1] (setting [7]) came out at 2700 ± 30 nM.
For the molecule `Cc1cc(Nc2ccc(Cc3ccccc3)cc2)n2ncnc2n1`, the IC50 was < 2000 nM in data set [2] (setting [11]), 2000 to 10000 nM in data set [3] (setting [12]) and > 10000 nM in data set [4] (setting [13]).
For the molecule `Cc1cc(Nc2ccc(C(F)(F)F)cc2)n2nc(C)nc2n1` [2,5-dimethyl-N-(4-(trifluoromethyl)phenyl)-[1,2,4]triazolo[1,5-a]pyrimidin-7-amine], in data set [2] (setting [8]), the IC50 was found to be 650 ± 310 nM. Moreover, the EC50 in data set [1] (setting [7]) worked out at 930 ± 18 nM.
Take `Cc1cc(Nc2ccc3ccccc3c2)n2nccc2n1`: the IC50 in data set [2] (Table 3, single determinations, read-out: PfDHODH IC50) is 400 ± 90 nM; in data set [4] (setting [9]), 3300 nM. For the same molecule, the EC50 in data set [1] (Plasmodium falciparum, 3D7, Erythrocyte, Table 3, 3D7, average of the determinations, read-out: P. falciparum 3D7 EC50 Ave) is 1000 nM; in data set [1] (setting [10]), 990 ± 6 nM; in data set [1] (Table 3, 3D7, single determinations, read-out: P. falciparum 3D7 EC50 (converted)) it was 1100 nM.
For the molecule `Cc1ccc(Nc2cc(C)nc3ncnn23)c(F)c1`, the IC50 in data set [2] (setting [11]), in data set [3] (setting [12]) and in data set [4] (setting [13]) was > 10000 nM each time.
`Cc1cc(Nc2ccc(F)c(C)c2)n2ncnc2n1` yielded a melting point of 231 °C.
For `Cc1cc(Nc2ccc3ccccc3c2)n2nc(C)nc2n1`, the IC50 in data set [2] (setting [14]) is 120 ± 20 nM; in data set [3] (Table 1, read-out: IC50 hDHODH), > 200000 nM. Moreover, the EC50 in data set [1] (setting [15]) is < 150 nM.
`Cc1nc2ncnn2c(Nc2ccc(C(F)(F)F)cc2)c1C` [5,6-dimethyl-N-(4-(trifluoromethyl)phenyl)-[1,2,4]triazolo[1,5-a]pyrimidin-7-amine]: the IC50 in data set [2] (setting [8]) came to 1200 ± 330 nM. In addition, the EC50 in data set [1] (setting [7]) was 2700 ± 9 nM.
One may read the half-life as the time needed for the level to fall by half in the phase considered. The Cmax is the maximum level reached in the sampled fluid or tissue. For the molecule `Cc1cc(Nc2ccc(C(F)(F)F)cc2)n2ncnc2n1` [drawing 22], the EC50 in data set [1] (Plasmodium falciparum, 3D7, Erythrocyte, Table 2, 3D7, read-out: P. falciparum 3D7 EC50 (converted)) was 350 ± 3 nM. For the same molecule, in data set [5] (setting [16]), the AUC0-last increase amounted to 4.4 fold and the Cmax increase turned out to be 3.5 fold. Further, in data set [5] (male, Swiss outbred, mouse, plasma, mice, oral, 50 mg/kg, read-out: apparent half-life), the half-life was 2.95 h. For the same molecule, in data set [5] (mice, oral, 20 mg/kg), the AUC0-last was found to be 2690 µM·min, the Cmax turned out to be 7.9 ± 2.5 µM, the apparent half-life worked out at 1.8 h and the peak plasma concentration came to 11 micro molar. The “adverse reactions following oral administration” value in data set [5] (mice, oral, 20 mg/kg and 50 mg/kg) is “No adverse reactions were observed”. For the same molecule, in data set [5] (mice, oral, 50 mg/kg), the AUC0-last was determined as 11757 µM·min, the Cmax was determined as 27.6 ± 5 µM, the “time with plasma concentration above 1 μM” value was determined as 16 h and the peak plasma concentration was 31 micro molar. Besides, the parasite growth entry in data set [6] (50 mg/kg, blood smear Wright-Giemsa stain, FIG. 1B) is reported as “suppresses parasite growth”. Further, the “parasite growth, twice a day rather than a single dose” value in data set [6] (twice a day versus single dose) is recorded as “Greater suppression of parasite growth”.
On to `Cc1cc(Nc2ccc(Br)c(C)c2)n2nc(C)nc2n1`, for which, in data set [2] (setting [8]), the IC50 stood at 70.6 nM. The EC50 in data set [1] (setting [7]) was 80 to 120 nM.
In the case of `Cc1cc(Nc2ccc(Cl)cc2)n2ncnc2n1`, the IC50 in data set [2] (setting [11]) is < 2000 nM; in data set [3] (setting [12]), > 10000 nM; in data set [4] (setting [13]) it was 2000 to 10000 nM.
With `Cc1cc(Nc2ccc(Br)c(C(F)(F)F)c2)n2ncnc2n1`, the IC50 in data set [2] (setting [11]) was < 2000 nM; in data set [3] (setting [12]) it was > 10000 nM; in data set [4] (setting [13]), < 2000 nM.
In turn, `Cc1cc(Nc2cccc(Cl)c2)n2ncnc2n1` [drawing 23] returned a melting point of 227 °C.
For `Cc1cc(Nc2ccc3cc4ccccc4cc3c2)n2nc(C)nc2n1`, the IC50 in data set [2] (setting [14]) is 100 nM; in data set [3] (Table 1, read-out: IC50 hDHODH), > 200000 nM. Moreover, the EC50 in data set [1] (setting [15]) came to 230 ± 1.4 nM.
In the case of `Cc1nc2nc(C)c(Cl)c(Nc3ccc(C(F)(F)F)cc3)n2n1` [6-chloro-2,5-dimethyl-N-(4-(trifluoromethyl)phenyl)-[1,2,4]triazolo[1,5-a]pyrimidin-7-amine], the IC50 in data set [2] (setting [8]) came to 620 ± 80 nM. Further, the EC50 in data set [1] (setting [7]) worked out at 7100 ± 40 nM.
Turning to `Cc1cc(Nc2ccc(C)c(C(F)(F)F)c2)n2ncnc2n1`, the IC50 in data set [2] (setting [11]) is < 2000 nM; in data set [3] (setting [12]), > 10000 nM; in data set [4] (setting [13]), 2000 to 10000 nM.
